This note sets out measurements from paper PMC11850406, “Large-scale screening of HIV-1 T-cell epitopes restricted by 12 prevalent HLA-A allotypes in Northeast Asia and universal detection of HIV-1-specific CD8^+ T cells” (Frontiers in Microbiology, 2025).

For one assay, the target named is T1, HLA-A1101 (Homo sapiens, UniProt P04439, A114D/D185E/E176A/F33Y/L180Q/S129P/T187R).
T1 construct: expressed in transfected cells; host or cells: HMy2.CIR
Kind of assay: cell-based. It is filed as binding. Particulars: for inhibition at 5 µM: peptide 5 μM vs FITC-labeled reference peptide 300 nM, read-out: 5-μM inhibition (%); for inhibition at 5 µM / inhibition at 15 µM: 24 h, 4°C, flow cytometry; for inhibition at 15 µM: peptide 15 μM vs FITC-labeled reference peptide 300 nM, read-out: 15-μM inhibition (%). (In general: Flow cytometry measures light scatter and fluorescence of single cells or particles in a stream.)

Another assay addresses HLA-A1102 (Homo sapiens, UniProt P04439, A114D/D185E/E176A/E43K/F33Y/L180Q/S129P/T187R). Kind of assay: cell-based. Particulars: for inhibition at 5 µM: read-out: 5-μM inhibition (%); for inhibition at 15 µM: read-out: 15-μM inhibition (%). It counts as binding.
The target in another assay is T2, HLA-A0201 (Homo sapiens, UniProt P04439, D140Y/D185E/D98H/E176V/E277Q/G131W/G231S/I119V/I121R/I166T/I218V/L300P/L318F/N151K/N90K/P208A/P217A/Q86G/Q94H/R138H/R169H/T345S).
T2 construct: expressed in transfected cells; host or cells: HMy2.CIR
Description: cell-based. It counts as binding. Particulars: A0201; for 5-μM inhibition (%) / inhibition at 5 µM: peptide 5 μM vs FITC-labeled reference peptide 300 nM; for 5-μM inhibition (%) / 15-μM inhibition (%) / inhibition at 5 µM / inhibition at 15 µM: 24 h, 4°C, flow cytometry; for 15-μM inhibition (%) / inhibition at 15 µM: peptide 15 μM vs FITC-labeled reference peptide 300 nM; for IC50: class from inhibition at 5 and 15 μM of FITC-labeled reference peptide binding, read-out: Affinity; for inhibition at 5 µM: read-out: 5-μM inhibition (%); for inhibition at 15 µM: read-out: 15-μM inhibition (%).

The target in another assay is T3, HLA-A0203 (Homo sapiens, UniProt P04439, A173T/D140Y/D185E/D98H/E277Q/G131W/G231S/I119V/I121R/I166T/I218V/L180W/L300P/L318F/N151K/N90K/P208A/P217A/Q86G/Q94H/R138H/R169H/T345S).
T3 construct: expressed in transfected cells; host or cells: HMy2.CIR
Kind of assay: cell-based. It is filed as binding. Particulars: for 5-μM inhibition (%) / inhibition at 5 µM: peptide 5 μM vs FITC-labeled reference peptide 300 nM; for 5-μM inhibition (%) / 15-μM inhibition (%) / inhibition at 5 µM / inhibition at 15 µM: 24 h, 4°C, flow cytometry; for 15-μM inhibition (%) / inhibition at 15 µM: peptide 15 μM vs FITC-labeled reference peptide 300 nM; for inhibition at 5 µM: read-out: 5-μM inhibition (%); for inhibition at 15 µM: read-out: 15-μM inhibition (%).

The next assay has as its target T4, HLA-A3101 (Homo sapiens, UniProt P04439, A270S/D185E/E176V/E277Q/F33T/G231S/G80R/H175R/I121M/I218V/I322F/K168Q/L300P/L318F/M331R/P217A/Q94H/R138Q/T323A/T345S/T97I/V358M).
T4 construct: expressed in transfected cells; host or cells: HMy2.CIR
Description: Peptide competitive binding assay, HMy2.CIR cells expressing A3101. The settings on record: for IC50: read-out: Affinity.

In a further assay the target is HLA-A3303 (Homo sapiens, UniProt P04439, A270S/D185E/E176V/E277Q/E87N/F33T/G231S/H175R/I121M/I218V/I322F/K168Q/L300P/L318F/M331R/P217A/Q86R/Q94H/R138Q/T323A/T345S/T97I/V358M). Kind of assay: Peptide competitive binding assay, HMy2.CIR cells expressing A3303. Particulars: for IC50: read-out: Affinity; for inhibition at 5 µM: peptide 5 μM vs FITC-labeled reference peptide 300 nM; for inhibition at 5 µM / inhibition at 15 µM: 24 h, 4°C, flow cytometry; for inhibition at 15 µM: peptide 15 μM vs FITC-labeled reference peptide 300 nM.

Where [1] appears, read: A1102, peptide 5 μM vs FITC-labeled reference peptide 300 nM, 24 h, 4°C, flow cytometry.
[2] abbreviates: A1102, peptide 15 μM vs FITC-labeled reference peptide 300 nM, 24 h, 4°C, flow cytometry.
Where [3] appears, read: A3101, peptide 5 μM vs FITC-labeled reference peptide 300 nM, 24 h, 4°C, flow cytometry.
The mark [4] stands for this setting: A3101, peptide 15 μM vs FITC-labeled reference peptide 300 nM, 24 h, 4°C, flow cytometry.

Where two headings read alike, the source gives them in different places. Where no end group is shown, it is not given here. Some results are limits rather than exact numbers.

The term inhibition denotes the drop in the measured response relative to a control, in per cent. At HLA-A1101, FVNTPPLVK [Peptide P44] yielded an IC50 of less than 5 µM. Further, the inhibition at 5 µM was 84.5% on HLA-A1101 (A1101) and 6.01% at HLA-A1102 (setting [1]). Further, the inhibition at 15 µM was 92.7% on HLA-A1101 (A1101) and 26.1% at HLA-A1102 (setting [2]).
Regarding QMQEDVISL [Peptide P4], on HLA-A0201, the “5-μM inhibition (%)” value turned out to be 10.81% and the “15-μM inhibition (%)” value is listed as 44.70%. Moreover, on HLA-A0203 (A0203), the “5-μM inhibition (%)” value was found to be 0.00% and the “15-μM inhibition (%)” value was found to be 0.00%.
As to RANSPTSRK [Peptide P88], the “5-μM inhibition (%)” value at HLA-A1102 (setting [1]) is given as 0.00%. The “15-μM inhibition (%)” value on HLA-A1102 (setting [2]) amounted to 0.35%.
Take YMLKHLVWA [Peptide P7]: at HLA-A0201, the “5-μM inhibition (%)” value was 8.94% and the “15-μM inhibition (%)” value turned out to be 16.50%. For the same sequence, at HLA-A0203 (A0203), the “5-μM inhibition (%)” value came out at 3.83% and the “15-μM inhibition (%)” value stood at 19.15%.
With NLKTGKYAR [Peptide P101], the “5-μM inhibition (%)” value on HLA-A3101 (setting [3]) came to 32.90%. Further, the “15-μM inhibition (%)” value at HLA-A3101 (setting [4]) was 41.10%.
Take RSNFKGSKR [Peptide P97]: on HLA-A3101 (setting [3]), the inhibition at 5 µM turned out to be 66.6%. Also, the inhibition at 15 µM on HLA-A3101 (setting [4]) is 92.9%. At HLA-A3101, the IC50 was less than 5 µM.
In the case of ATLWCVHQR [Peptide P34], the IC50 was 5 to 15 µM on HLA-A1101 (A1101, class from inhibition at 5 and 15 μM of FITC-labeled reference peptide binding, read-out: Affinity); less than 5 µM on HLA-A3303 (A3303, class from inhibition at 5 and 15 μM of FITC-labeled reference peptide binding). Besides, the inhibition at 5 µM at HLA-A1101 (A1101) was determined as 44%; on HLA-A1102 (setting [1]) it was 3.12%; at HLA-A3303 (A3303) it was 63.8%. The figures for the inhibition at 15 µM at HLA-A1101 (A1101), at HLA-A1102 (setting [2]) and on HLA-A3303 (A3303) were 77.8%, 13.8% and 77.2%, respectively.
As for SLVDTIAIAV [Peptide P1], on HLA-A0201, the IC50 lay within 5 to 15 µM, the inhibition at 5 µM was found to be 38% and the inhibition at 15 µM is 78.5%. Further, on HLA-A0203 (A0203), the inhibition at 5 µM worked out at 28.2% and the inhibition at 15 µM was found to be 31.9%.
Regarding IIFAVLSIV [Peptide P5], on HLA-A0201, the inhibition at 5 µM was 20.6% and the inhibition at 15 µM was determined as 42.8%. Besides, the IC50 against HLA-A0203 lay in the range of 5 to 15 µM. Besides, on HLA-A0203 (A0203), the inhibition at 5 µM stood at 31% and the inhibition at 15 µM was 64.6%.
Regarding SILDIRQGPK [Peptide P33], the IC50 on HLA-A1101 is less than 5 µM; against HLA-A1102 it was 5 to 15 µM. Also, the inhibition at 5 µM is 83.2% on HLA-A1101 (A1101) and 16.8% at HLA-A1102 (setting [1]). Also, the inhibition at 15 µM at HLA-A1101 (A1101) turned out to be 93.1%; on HLA-A1102 (setting [2]) it was 50.6%.
In the case of MTKILEPFR [Peptide P102], the inhibition at 5 µM at HLA-A3101 (setting [3]) came to 60.2%; at HLA-A3303 (A3303) it was 69.5%. The inhibition at 15 µM on HLA-A3101 (setting [4]) came to 88.3%; at HLA-A3303 (A3303), 70%. Also, the IC50 on HLA-A3101 and at HLA-A3303 was less than 5 µM in each case.
As to TSLPKQEQK [Peptide P31], the IC50 at HLA-A1101 was less than 5 µM. Moreover, the inhibition at 5 µM on HLA-A1101 (A1101) came out at 75.2%; on HLA-A1102 (setting [1]), 4.16%. For the same sequence, the inhibition at 15 µM on HLA-A1101 (A1101) turned out to be 86.5%; at HLA-A1102 (setting [2]) it was 18%.
For the sequence SLAEGEIII [Peptide P3], on HLA-A0201, the IC50 is 5 to 15 µM, the inhibition at 5 µM stood at 26.1% and the inhibition at 15 µM worked out at 66.2%. Moreover, the IC50 at HLA-A0203 (A0203, class from inhibition at 5 and 15 μM of FITC-labeled reference peptide binding, read-out: Affinity) was 5 to 15 µM. In addition, at HLA-A0203 (A0203), the inhibition at 5 µM was found to be 0.12% and the inhibition at 15 µM is 51.1%.
